Patent EP2647374A1, “Nutritional compositions including beta-hydroxy-beta-methylbutyrate for regulating transcription factors” (Abbott Laboratories, Inc., priority 2012, dated 2013)

How the values were obtained:
L6 myotubes [1] = assay: Protein degradation assay ([3H]Tyr release) in dexamethasone-treated myotubes; assay type: cell-based, rat; settings: pre-incubation HMB 25 µM or Leu 10 mM 48 hours, then 48 hours with dexamethasone 5 µM
Procedure: (§1) Cell culture. The L6.C11 rat skeletal muscle myoblast line (ECACC No. 92102119) was grown in DMEM containing 10% (v/v) FCS, 2 mmol/l Glutamine plus 100 units/ml penicillin and 0.1 mg/ml streptomycin (Sigma) in an atmosphere of air/CO2 (95:5) and maintained at subconfluent densities in growth media. Cells were differentiated to myotubes by exchanging the growth medium for a differentiation medium consisting of DMEM containing 2% (v/v) FCS for 3-4 days (>50% fusion into multinucleated myotubes).
(§2) Protein synthesis and degradation assays. […] At the completion of the labeling period, cultures were rinsed three times with PBS, cells were lysed with sodium desoxycholate 0.1%/NaOH 0.1 M and protein was precipitated with cold 10% TCA in PBS overnight, rinsed once with cold 10% TCA, solubilized in NaOH 0.5 M, neutralized with HCl 0.5 M and mixed with scintillation fluid, and radioactivity was determined using a scintillation counter. […] Degradation rates were determined according to Hong & Forsberg, 1995.
To study the effects of HMB and Leu on protein degradation induced by dexamethasone, L6 differentiated myotubes were first differentiated to myotubes for 3 days in 2% FBS, and then the medium was changed to 10% FBS for the remainder of the experiment. […] After the incubation, protein degradation for each condition was calculated. […] Results are expressed as mean ± SEM of six independent experiments.

L6 myotubes [2] = assay: Protein synthesis assay ([3H]Tyr incorporation) in dexamethasone-treated myotubes; assay type: cell-based, rat; settings: HMB 25 µM or Leu 10 mM, 2 hours plus 1 hour labeling, dexamethasone 5 µM
Procedure: as §1, §2
Particularly, L6 myotubes were treated with HMB (25 µM) or Leu (10 mM) for 2 hours in the presence or absence of dexamethasone (5 µM). […] After the incubation, protein synthesis for each condition was calculated. […] Results are expressed as means ± SEM of six independent experiments.

PKB/Akt = assay: Western blot of phospho-PKB/Akt vs total PKB/Akt in L6 myotubes; assay type: cell-based, rat; settings: basal, without dexamethasone; HMB 25 µM or Leu 10 mM, 30 minutes
Procedure: (§3) Protein phosphorylation analysis. L6 myotubes were incubated with HMB or Leu in the absence or presence of dexamethasone for 30 minutes. After treatment, plates were flash frozen in liquid nitrogen and were scraped with 50 µl/60 mm/plate of cold 30 mmol/L Tris-HCl pH 7.4, 25 mmol/L NaCl, 1% (v/v) Triton X-100, 0.1% SDS, 10 mmol/L sodium fluoride, 10 mmol/L sodium pyrophosphate, 1 mmol/L sodium orthovanadate, 1 mmol/L EGTA, 20 nmol/L okadaic acid, 10 µg/ml aprotinin, 10 µg/ml leupeptin, 10 µg/ml pepstatin. After 10 minutes on ice, extracts were centrifuged at 13000 g for 10 minutes at 4°C. Protein concentration from the supernatants was measured using the Bio-Rad Protein Assay. […]
(§4) L6 Myoblasts were differentiated to myotubes for 3 days in 2% FBS. […] Cells were lysed in phosphorylation buffer and analyzed by Western blot using an anti-phospho PKB/Akt antibody (FIG. 3A), anti-phospho mTOR antibody (FIG. 3B), or anti-atrogin-1 antibody (FIG. 3C). […] The lower panels of each of FIGS. 3A-3C show densitometric quantification of: phospho-PKB/total PKB protein abundance (FIG. 3A); phospho-mTOR/total mTOR protein abundance (FIG. 3B); or atrogin-1 protein abundance using Histone H3 (FIG. 3C) as a reference control. Results are expressed as means ± SEM of four independent experiments.

mTOR = assay: Western blot of phospho-mTOR vs total mTOR in L6 myotubes; assay type: cell-based, rat; settings: basal, without dexamethasone; HMB 25 µM or Leu 10 mM, 30 minutes
Procedure: as §3, §4

FOXO = assay: FOXO-responsive luciferase reporter assay in L6 cells; assay type: cell-based, rat
Text: (§5) Reporter gene constructs. For the analysis of rat Ubiquitin (UbC) promoter, a 417 bp fragment of 417 bp flanking the transcription start point was amplified from rat genomic DNA. This fragment was similar to those that have been characterized for the human and rat promoters. The sequences of all constructs were verified by automated DNA sequencing. The Cignal FOXO Reporter (luc) kit, CCS-1022L, was provided by SABiosciences and contains a mixture of inducible FOXO-responsive firefly luciferase construct and constitutively expressing Renilla luciferase construct (40:1).
(§6) DNA transfection assays. For transfection experiments, cells were used at 80-90% confluence. […] Luciferase activity was determined using standard reagents (Dual Luciferase method, Promega) in a luminometer (Sirius L, Berthold Technologies, Bad Wildbad, Germany) and results were standardized for Renilla luciferase activity. […] To allow comparison of the expression patterns, the data were expressed as relative changes in luciferase activity and were normalized to a value of 100%.
To address whether the down-regulation of atrogin-1 in HMB- pretreated cells was accompanied by an underlying regulation of the FOXO transcription factor, the total FOXO expression (monitored by using FOXO-luciferase reporter gene activity) and the amount FOXO3a transcription factor in the nucleus were analyzed. […]

FOXO3a = assay: Western blot of FOXO3a in nuclear extracts of L6 cells (Histone H3 reference); assay type: cell-based, rat
Procedure: Preparation of nuclear extracts. Nuclear extracts from L6 cells were prepared following Bhavsar et al. Protein concentration was measured in nuclear extracts using the Bio-Rad Protein Assay kit. Aliquots of the extracts (40 µg) were resolved by 10% SDS-PAGE and analyzed by immunoblotting using a 1:1000 dilution of polyclonal anti-FOXO3a or anti-Histone H3 antibodies. The antigen-antibody complexes were detected with HRP-conjugated secondary antibodies using a chemiluminescence detection system (Bio-Rad).
To address whether the down-regulation of atrogin-1 in HMB- pretreated cells was accompanied by an underlying regulation of the FOXO transcription factor, the total FOXO expression (monitored by using FOXO-luciferase reporter gene activity) and the amount FOXO3a transcription factor in the nucleus were analyzed. L6 Myoblasts were differentiated to myotubes for 3 days in 2% FBS. After the differentiation process, medium was changed to 10% FBS for the remainder of the experiment. Myotubes were incubated in the presence or absence of HMB (25 µM) or Leu (10 mM) for 48 hours. […]
Further, L6 untransfected cells were treated as above, nuclear extracts were obtained as described in the material and methods section and analyzed by Western blot using an anti-FOXO3 antibody. […] Results are expressed as means ± SEM of four independent experiments.

ERK1/2 = assay: Western blot of phospho-ERK1/2 vs total ERK1/2 in L6 myotubes; assay type: cell-based, rat; settings: HMB 25 µM or Leu 10 mM, 30 minutes
Procedure: Protein phosphorylation analysis. L6 myotubes were incubated with HMB or Leu in the absence or presence of dexamethasone for 30 minutes. After treatment, plates were flash frozen in liquid nitrogen and were scraped with 50 µl/60 mm/plate of cold 30 mmol/L Tris-HCl pH 7.4, 25 mmol/L NaCl, 1% (v/v) Triton X-100, 0.1% SDS, 10 mmol/L sodium fluoride, 10 mmol/L sodium pyrophosphate, 1 mmol/L sodium orthovanadate, 1 mmol/L EGTA, 20 nmol/L okadaic acid, 10 µg/ml aprotinin, 10 µg/ml leupeptin, 10 µg/ml pepstatin. After 10 minutes on ice, extracts were centrifuged at 13000 g for 10 minutes at 4°C. Protein concentration from the supernatants was measured using the Bio-Rad Protein Assay. Proteins (25-40 µg) were separated by SDS-PAGE and immunoblotted with selected antibodies; the immunoblots were developed by chemiluminescence detection.
Taking into account that phosphorylation of FOXO3a by ERK is a required step for FOXO3a ubiquitination and subsequent proteosomal degradation of this transcription factor in the cytoplasm, the effect of HMB and Leu on ERK activation was also analyzed. Specifically, L6 Myoblasts were differentiated to myotubes for 3 days in 2% FBS. […] Cells were lysed in phosphorylation buffer and analyzed by Western blot using an anti-phospho ERK1/2 antibody. […] Results are expressed as means ± SEM of four independent experiments.

UbC promoter = assay: pGL3-UbC luciferase reporter assay in L6 myotubes; assay type: cell-based, rat; settings: pre-treatment HMB 25 µM or Leu 10 mM 48 hours, then dexamethasone 5 µM 48 hours
Text: as §5, §6
Additionally, the effect of HMB and Leu on UbC promoter implicated in protein degradation induced by dexamethasone was analyzed. […] Results are expressed as means ± SEM of six independent experiments.

atrogin-1 = assay: cells; assay type: cell-based; settings: Rattus norvegicus, L6, 48 h, read-out: increase in amount of atrogin-1
Procedure: Atrogin-1 analysis. L6 myotubes were pre-incubated with HMB 25 µM or Leu 10 mM for 48 hours. Then, dexamethasone 5 µM was added for another 48 hours. After treatment, cells were lysed with RIPA buffer (Sigma) supplemented with inhibitor protease cocktail (Sigma). Lysates were sonicated and protein concentration was measured using the Bio-Rad Protein Assay. Proteins (40 µg) were separated by SDS-PAGE and immunoblotted with anti-atrogin antibody.
L6 Myoblasts were differentiated to myotubes for 3 days in 2% FBS. Cells were deprived of FBS for 12 hours and incubated with HMB (25 µM) or Leu (10 mM) and insulin (100 nmol/l) in the absence or presence of dexamethasone (5 µM) for 30 minutes. Cells were lysed in phosphorylation buffer and analyzed by Western blot using an anti-phospho PKB/Akt antibody (FIG. 3A), anti-phospho mTOR antibody (FIG. 3B), or anti-atrogin-1 antibody (FIG. 3C). As a loading control, results were normalized using an anti-total PKB/Akt antibody, anti-total mTOR antibody, or an anti-Histone H3 antibody (see FIGS. 3A-3C, respectively). […] The lower panels of each of FIGS. 3A-3C show densitometric quantification of: phospho-PKB/total PKB protein abundance (FIG. 3A); phospho-mTOR/total mTOR protein abundance (FIG. 3B); or atrogin-1 protein abundance using Histone H3 (FIG. 3C) as a reference control. Results are expressed as means ± SEM of four independent experiments.

[3] = basal conditions, absence of dexamethasone, HMB 25 µM or Leu 10 mM
[4] = pre-treatment HMB 25 µM or Leu 10 mM 48 hours, then dexamethasone 5 µM 12 hours

## CC(C)(O)CC(=O)O [HMB, beta-hydroxy-beta-methylbutyrate]
L6 myotubes [1]; Rattus norvegicus, L6, read-out: decrease of proteolysis induced by dexamethasone
  inhibition at 25 µM: ~60%

## CC(C)C[C@H](N)C(=O)O [Leu, Leucine]
L6 myotubes [1]
  decrease of proteolysis induced by dexamethasone: did not significantly affect glucocorticoid-induced protein degradation
L6 myotubes [2]
  prevention of the decrease in protein synthesis induced by dexamethasone: but not Leu
PKB/Akt
  phosphorylative state of Akt: did not have influence on the phosporylative state of Akt and mTOR
mTOR
  phosphorylative state of mTOR: did not have influence on the phosporylative state of Akt and mTOR
FOXO; [3]
  FOXO basal activity: neither HMB nor Leu were able to significantly change FOXO basal activity or amount
FOXO; [4]
  FOXO overexpression induced by dexamethasone (reporter activity): did not have any effect on the dexamethasone-increased FOXO expression and amount
FOXO3a; [3]
  FOXO basal amount (nuclear FOXO3a): neither HMB nor Leu were able to significantly change FOXO basal activity or amount
FOXO3a; [4]
  FOXO3a nuclear translocation induced by dexamethasone: did not have any effect on the dexamethasone-increased FOXO expression and amount
ERK1/2; atrophic conditions (dexamethasone 5 µM)
  ERK activation (phospho-ERK/total ERK): induced an activation of ERK kinase either at basal or at atrophic conditions
ERK1/2; basal conditions
  ERK activation (phospho-ERK/total ERK): induced an activation of ERK kinase either at basal or at atrophic conditions
UbC promoter
  counteraction of the effects of dexamethasone on Ub-C promoter activity: only HMB was able to significantly counteract the effects of dexamethasone on Ub-C promoter activity

## C[C@@H]1C[C@H]2[C@@H]3CCC4=CC(=O)C=C[C@]4(C)[C@@]3(F)[C@@H](O)C[C@]2(C)[C@@]1(O)C(=O)CO [dexamethasone]
atrogin-1
  fold induction at 5 µM: > 4
